What all share (assay type): physicochemical
Data set [1] is described as follows: Viscosity of the compound itself (Gemini II, Malvern). The note with it: 25° C., at shear velocity of 92 1/s. How it is done:
In addition, the amphipathic compound to be used for the adhesion preventing agent of the present invention has low viscosity in itself. Specifically, the amphipathic compound to be used for the adhesion preventing agent of the present invention has a viscosity of preferably 15.0 Pa·s or less, more preferably 11.0 Pa·s or less, and further preferably 6.0 Pa·s or less as measured at 25° C. in itself. The viscosity can be measured using, for example, a viscosity and viscoelasticity measuring apparatus (Gemini II, Malvern Instruments Ltd.) at 25° C.
The viscosity of each of the compounds described in the Examples 1-7 was measured using a viscosity/viscoelasticity measuring instrument (Gemini II, Malvern) at the temperature of 25° C.

The nature of data set [2]: SAXS analysis of compound/water system (liquid crystal formation). Conditions: compound/water system gel, 50% by mass in water-excess condition, room temperature (25° C.). An excerpt: Whether or not a liquid crystal structure has a cubic lattice may be determined by a small-angle X-ray scattering (SAXS) method, for the purpose of confirming liquid crystal formation. First, an amphipathic compound/water system sample with a predetermined concentration can be filled into an X-ray capillary tube made of quartz, for example, and the capillary tube is sealed with an oxy-fuel burner, and subjected to SAXS assay.
Mono-O-(5,9,13-trimethyltetradeca-4,8,12-trienoyl)glycerol synthesized in Example 1 and pure water were introduced into a mixing device at the concentration of 50% by mass of mono-O-(5,9,13-trimethyltetradeca-4,8,12-trienoyl)glycerol (in water-excess condition), and they were mixed at room temperature (25° C.) and left for 24 hours to obtain a homogeneous mixture. Then the separated water was removed. Thus, a sample of mono-O-(5,9,13-trimethyltetradeca-4,8,12-trienoyl)glycerol/water system was obtained as a white turbid to colorless transparent gel composition in appearance (it was referred to below as the gel sample).
Subsequently, the gel sample was analyzed by small-angle x-ray scattering (SAXS). The NANO-Viewer nano-scale X-ray structure analysis equipment (Rigaku) was used for SAXS analysis, which was performed by X-ray irradiation at room temperature (25° C.), 40 kV, 50 mA, wavelength λ=0.1542 nm (Cu-Kα).
Each of the compounds synthesized in Example 32, 33, 43, 45, 49, and 50 and water were homogeneously mixed in accordance with the same procedure as in Example 9 to obtain a sample of each compound/water system being a gel in appearance. SAXS analysis of these gel samples was performed in the same manner as in Example 9. […]

A short description of data set [3]: Shear viscosity of liquid crystal gels. Conditions: gel prepared by addition of water, 25° C. The procedure:
The viscosity was measured for the gels prepared by addition of water to the compounds synthesized in Examples 1, 4, and 5. Specifically, for the gel samples obtained by mixing homogeneously according to the same procedure as in Example 9, the shear viscosity was measured at a temperature of 25° C., using a viscosity and viscoelasticity measuring apparatus (Gemini II, Malvern Instruments Ltd.; cone plate φ25, cone angle 1°).
The viscosity was measured for the gels prepared by addition of water to the compounds synthesized in Examples 45 and 50, and C17 glycerin ester synthesized in Example 13. Specifically, for the gel samples obtained by mixing homogeneously according to the same procedure as in Example 9, the shear viscosity was measured at a temperature of 25° C., using a viscosity and viscoelasticity measuring apparatus (Gemini II, Malvern Instruments Ltd.; cone plate φ25, cone angle 1°).

Structures are written as SMILES.

`CC(C)=CCC/C(C)=C/CCC(C)=CCCC(=O)OCC(CO)(CO)CO` (racemic) [Example 3, mono-O-(5,9,13-trimethyltetradeca-4,8,12-trienoyl)pentaerythritol] returned a Viscosity in data set [1] of 2.5 Pa·s.

In the case of `CC(C)=CCC/C(C)=C/CC/C(C)=C/CCC(C)=CCCC(=O)OCC(O)CO` (racemic) [Example 4, mono-O-(5,9,13,17-tetramethyloctadeca-4,8,12,16-tetraenoyl)glycerol], the Viscosity in data set [1] was 0.37 Pa·s; in data set [3] (shear velocity 12 1/s), 39 Pas · sec; in data set [3] (shear velocity 100.8 1/s), 1.4 Pas · sec. In addition, the “liquid crystal structure (SAXS peak value ratio)” value in data set [2] is “reverse hexagonal liquid crystal”.

`CC(C)=CCC/C(C)=C/CC/C(C)=C/CCC(C)=CCCC(=O)OCC(CO)(CO)CO` (racemic) [Example 6, mono-O-(5,9,13,17-tetramethyloctadeca-4,8,12,16-tetraenoyl)pentaerythritol] yielded a Viscosity in data set [1] of 3.3 Pa·s. For the same compound, in data set [2], the “liquid crystal structure (SAXS peak value ratio)” value is given as “cubic liquid crystal that belongs to the crystallographic space group Pn3m”.

As for `CC(C)=CCC/C(C)=C/CCC(C)=CCOCC(O)CO` (racemic) [Example 28, mono-O-(3,7,11-trimethyldodeca-2,6,10-trienyl)glycerol], in data set [1], the Viscosity turned out to be 0.20 Pa·s.

As to `CC(C)=CCC/C(C)=C/CCC(C)=CCOCC(CO)(CO)CO` (racemic) [Example 30, mono-O-(3,7,11-trimethyldodeca-2,6,10-trienyl)pentaerythritol], the Viscosity in data set [1] was found to be 1.6 Pa·s.

In the case of `CC(C)=CCC/C(C)=C/CCC(C)=CCCCOCC(O)CO` (racemic) [Example 31, mono-O-(5,9,13-trimethyltetradeca-4,8,12-trienyl)glycerol], the Viscosity in data set [1] is listed as 0.23 Pa·s.

Consider `CC(C)=CCC/C(C)=C/CCC(C)=CCCCOCC(CO)(CO)CO` (racemic) [Example 33, mono-O-(5,9,13-trimethyltetradeca-4,8,12-trienyl)pentaerythritol], for which the Viscosity in data set [1] was 0.63 Pa·s. The “liquid crystal structure (SAXS peak value ratio)” value in data set [2] is listed as “cubic liquid crystals that belong to the crystallographic space group Pn3m”.

In the case of `CC(C)=CCC/C(C)=C/CC/C(C)=C/CCC(C)=CC(=O)OCC(O)CO` (racemic) [Example 41, mono-O-(3,7,11,15-tetramethylhexadeca-2,6,10,14-tetraenoyl)glycerol], in data set [1], the Viscosity was determined as 3.8 Pa·s.

Regarding `CC(C)=CCC/C(C)=C/CC/C(C)=C/CCC(C)=CC(=O)OCC(CO)(CO)CO` (racemic) [Example 43, mono-O-(3,7,11,15-tetramethylhexadeca-2,6,10,14-tetraenoyl)pentaerythritol], the Viscosity in data set [1] came to 14 Pa·s. The “liquid crystal structure (SAXS peak value ratio)” value in data set [2] is reported as “reverse hexagonal liquid crystals”.

As for `CC(C)=CCC/C(C)=C/CC/C(C)=C/CCC(C)=CCOCC(O)CO` (racemic) [Example 44, mono-O-(3,7,11,15-tetramethylhexadeca-2,6,10,14-tetraenyl)glycerol], the Viscosity in data set [1] came to 0.26 Pa·s.

Take `CC(C)=CCC/C(C)=C/CC/C(C)=C/CCC(C)=CCOCC(CO)(CO)CO` (racemic) [Example 46, mono-O-(3,7,11,15-tetramethylhexadeca-2,6,10,14-tetraenyl)pentaerythritol]: in data set [1], the Viscosity is recorded as 2.9 Pa·s.

In data set [1], `CC(C)=CCC/C(C)=C/CC/C(C)=C/CCC(C)=CCOC(=O)C(O)CO` (racemic) [Example 52, 3,7,11,15-tetramethylhexadeca-2,6,10,14-tetraenyl glycerate] registered a Viscosity of 0.23 Pa·s.

Consider `CC(C)=CCC/C(C)=C/CC/C(C)=C/CCC(C)=CCCCOC(=O)C(O)CO` (racemic) [Example 53, 5,9,13,17-tetramethyloctadeca-4,8,12,16-tetraenyl glycerate], for which, in data set [1], the Viscosity turned out to be 0.21 Pa·s.

As for `CC(C)=CCC/C(C)=C/CCC(C)=CCCC(=O)OCC(O)CO` (stereo not shown) [Example 1, mono-O-(5,9,13-trimethyltetradeca-4,8,12-trienoyl)glycerol], the Viscosity is listed as 0.26 Pa·s in data set [1], 461 Pas · sec in data set [3] (shear velocity 12 1/s) and 37 Pas · sec in data set [3] (shear velocity 100.8 1/s). For the same compound, in data set [2], the “liquid crystal structure (SAXS peak value ratio)” value is “cubic liquid crystal that belongs to the crystallographic space group Pn3m”.

As to `CC(C)=CCC/C(C)=C/CCC(C)=CCCC(=O)OCC(O)C(O)CO` (stereo not shown) [Example 2, mono-O-(5,9,13-trimethyltetradeca-4,8,12-trienoyl)erythritol], the Viscosity in data set [1] was found to be 4.7 Pa·s.

`CC(C)=CCC/C(C)=C/CC/C(C)=C/CCC(C)=CCCC(=O)OCC(O)COCC(O)CO` (stereo not shown) [Example 7, mono-O-(5,9,13,17-tetramethyloctadeca-4,8,12,16-tetraenoyl)diglycerol] displayed a Viscosity in data set [1] of 2.6 Pa·s.

For `CC(=CCCC(=O)OCC(O)CO)CCCC(C)CCCC(C)C` (stereo not shown) [Example 13, mono-O-(5,9,13-trimethyltetradec-4-enoyl)glycerol], the Viscosity is listed as 0.48 Pa·s in data set [1], 1878 Pas · sec in data set [3] (shear velocity 10 1/s) and 166 Pas · sec in data set [3] (shear velocity 105 1/s).

`CC(C)=CCC/C(C)=C/CCC(C)=CC(=O)OCC(O)CO` (stereo not shown) [Example 27, mono-O-(3,7,11-trimethyldodeca-2,6,10-trienoyl)glycerol] returned a Viscosity in data set [1] of 3.0 Pa·s.

For `CC(C)=CCC/C(C)=C/CCC(C)=CCCCOCC(O)C(O)CO` (stereo not shown) [Example 32, mono-O-(5,9,13-trimethyltetradeca-4,8,12-trienyl)erythritol], the Viscosity in data set [1] came out at 1.2 Pa·s. In addition, the “liquid crystal structure (SAXS peak value ratio)” value in data set [2] is on record as “cubic liquid crystals that belong to the crystallographic space group Pn3m”.

In turn, `CC(C)=CCC/C(C)=C/CCC(C)=CCCCOCC(O)COCC(O)CO` (stereo not shown) [Example 34, mono-O-(5,9,13-trimethyltetradeca-4,8,12-trienyl)diglycerol] registered a Viscosity in data set [1] of 0.37 Pa·s.

In turn, `CC(C)=CCC/C(C)=C/CCC(C)=CCCCOC(=O)C(O)CO` (stereo not shown) [Example 36, 5,9,13-trimethyltetradeca-4,8,12-trienyl glycerate] came in with a Viscosity in data set [1] of 0.16 Pa·s.

As to `CC(C)=CCCC(C)=CCCC(C)=CCCC(C)=CCCCOCC(O)CO` (stereo not shown) [Example 48, mono-O-(5,9,13,17-tetramethyloctadeca-4,8,12,16-tetraenyl)glycerol], the Viscosity in data set [1] worked out at 0.16 Pa·s.

On to `CC(C)=CCC/C(C)=C/CC/C(C)=C/CCC(C)=CCCCOCC(O)C(O)CO` (stereo not shown) [Example 49, mono-O-(5,9,13,17-tetramethyloctadeca-4,8,12,16-tetraenyl)erythritol], for which the “liquid crystal structure (SAXS peak value ratio)” value in data set [2] is given as “reverse hexagonal liquid crystals”.

For `CC(C)=CCC/C(C)=C/CC/C(C)=C/CCC(C)=CCCCOCC(O)COCC(O)CO` (stereo not shown) [Example 51, mono-O-(5,9,13,17-tetramethyloctadeca-4,8,12,16-tetraenyl)diglycerol], in data set [1], the Viscosity is given as 1.4 Pa·s.

`CC(=CC(=O)OCC(O)CO)CCCC(C)CCCC(C)C` (stereo not shown) [Example 54, mono-O-(3,7,11-trimethyldodec-2-enoyl)glycerol] came in with a Viscosity in data set [1] of 0.45 Pa·s.

In data set [1], `CC(=CC(=O)OCC(CO)(CO)CO)CCCC(C)CCCC(C)CCCC(C)C` (stereo not shown) [Example 55, mono-O-(3,7,11,15-tetramethylhexadec-2-enoyl)pentaerythritol] returned a Viscosity of 10.6 Pa·s.

In the case of `CC(=CCCCOCC(CO)(CO)CO)CCCC(C)CCCC(C)C` (stereo not shown) [Example 56, mono-O-(5,9,13-trimethyltetradec-4-enyl)pentaerythritol], the Viscosity in data set [1] is listed as 0.98 Pa·s.

Turning to `CC(=CCCCOCC(O)CO)CCCC(C)CCCC(C)CCCC(C)C` (stereo not shown) [Example 58, mono-O-(5,9,13,17-tetramethyloctadec-4-enyl)glycerol], the Viscosity in data set [1] is reported as 0.44 Pa·s.
